System: MC3T3-E1 cells
Assay: Cell death assay (count of attached cells after 48 hours from subconfluence)
Format: cell-based, mouse
Description: To evaluate the effects of DHMBA on cell death of osteoblasts MC3T3-E1, the cells (1×10^5/ml medium per well in a 24-well plate) were cultured in a-MEM containing 10% FBS and 1% P/S. After culturing for 3 days until reaching subconfluence, either a reagent vehicle (1% ethanol as final concentration) or DHMBA (0.1, 1, 10, 100, or 1000 mM) was added, and the cells were further cultured for 48 hours. After culture, to count the number of cells attached to each well, a […] containing 0.05% trypsin and EDTA (0.1 ml per well) was added, and then the culture plates were incubated at 37°C for 2 minutes. Subsequently, a-MEM (0.9 ml) containing 10% FBS and 1% P/S was added, and the cells were detached and mixed by pipetting. The cell suspension (0.1 ml) was mixed with 0.1 ml of 0.5% trypan blue staining solution. By this staining, […]. Viable cells were counted under a microscope (Olympus MTV-3) using a hemocytometer (Sigma-Aldrich, St. Louis, MO) and a cell counter (H-102P, Line Seiki Co., Ltd., Tokyo, Japan), and the average of two counts was calculated. Cell numbers were expressed as the number per well.

COc1c(O)cc(CO)cc1O [DHMBA, 3,5-dihydroxy-4-methoxybenzyl alcohol]
number of cells attached to the dishes (cell death) (DHMBA 0.1, 1, 10, or 100 mM, 48 hours after subconfluence, Fig. 1C): not changed | number of cells (cell death) (DHMBA 1000 mM, 48 hours after subconfluence, Fig. 1C): significantly decreased | TNF-a-enhanced death of MC3T3-E1 cells (TNF-a 1 or 10 ng/ml plus DHMBA 1 or 10 mM, 48 hours, Fig. 3B): suppressed

— patent publication EP4778516A1, “CALCIFICATION ENHANCER FOR OSTEOBLAST MC3T3-E1 CELL” (Watanabe Oyster Laboratory Co., Ltd., priority 2023, dated 2025)
